# Laboratory results reported in patent US9895450B2, “Anti-wall teichoic antibodies and conjugates” (priority 2013, dated 2018).
# Tests used:
# MRSA (USA300 strain) [1] = assay: intravenous infection model in A/J mice; type: in vivo
# Procedure: Efficacy of the AAC in an intravenous infection model was also examined. In this model, S. aureus is taken up by circulating neutrophils shortly after infection such that the majority of bacteria found in blood are associated with host cells within minutes after infection (Rogers, et al (1956) J. Exp. Med. 103:713-742). A/J Mice were infected with 2×10^6 CFU of MRSA by intravenous injection, and then treated with 50 mg/Kg of AACs by intravenous injection 30 minutes post infection. In this model, the primary site of infection is the kidney, and mice develop large abscesses that are detectable by two days post infection and fail to be cleared for up to 30 days in the absence of treatment.
# Treatments were delivered by IV injection 30 minutes post infection and kidneys were harvested 4 days post infection. The grey dashed line indicates the limit of detection for each organ.
# Efficacy of AAC made with pipBOR and dimethyl-pipBOR antibiotic moieties was compared in vivo in the intravenous infection model in A/J mice. […] Seven week old female A/J Mice were infected with 2×10^6 CFU of MRSA (USA300 strain) by intravenous injection into the tail vein. […] Treatments with S4497 antibody, AAC 102 or AAC 105 were administered at the indicated doses 30 minutes after infection. Mice were sacrificed 4 days after infection and the total number of surviving bacteria per mouse (2 kidneys pooled) was determined by plating.
# (§1) Intravenous Infection Model: 7 week old female mice were used for all in vivo experiments and infections were carried out by intravenous injection into the tail vein. A/J mice (Jackson Lab) were infected with a dose of 2×10^6 CFU. Balb/c mice (Charles River Laboratories, Hollister, Calif.) were infected with a dose of 2×10^7 CFU. […] The total number of bacteria recovered per mouse (2 kidneys) was determined by plating serial dilutions of the tissue homogenate in PBS 0.05% Tween on Tryptic Soy Agar with 5% defibrinated sheep blood.
# MRSA (USA300 strain) [2] = assay: in vitro macrophage assay (intracellular killing of opsonized MRSA); type: cell-based, S. aureus; settings: 50 μg/mL; macrophages, osteoblasts (MG63), airway epithelial cells (A549), HUVEC
# Procedure: Isolation of Peritoneal Macrophages: Peritoneal macrophages were isolated from the peritoneum of 6-8 week old Balb/c mice (Charles River Laboratories, Hollister, Calif.). To increase the yield of macrophages, mice were pre-treated by intraperitoneal injection with 1 mL of thioglycolate media (Becton Dickinson). The thioglycolate media was prepared at a concentration of 4% in water, sterilized by autoclaving, and aged for 20 days to 6 months prior to use. Peritoneal macrophages were harvested 4 days post treatment with thioglycolate by washing the peritoneal cavity with cold phosphate buffered saline. Macrophages were plated in Dulbecco's Modified Eagle Medium (DMEM) supplemented with 10% Fetal Calf Serum, and 10 mM HEPES, without antibiotics, at a density of 4×10^5 cells/well in 24 well culture dishes. Macrophages were cultured over night to permit adherence to the plate. This assay was also utilized to test intracellular killing in non-phagocytic cell types. […]
# Infection of Macrophages with Opsonized MRSA: The USA300 strain of MRSA (NRS384) was obtained from the NARSA repository (Chantilly, Va.). […] Serial dilutions of the lysate were made in phosphate buffered saline solution supplemented with 0.05% Tween-20 (to disrupt aggregates of bacteria) and the total number of surviving intracellular bacteria was determined by plating on Tryptic Soy Agar with 5% defibrinated sheep blood.
# MRSA [3] = assay: growth inhibition assay / cathepsin release assay; type: cell-based, S. aureus; settings: MRSA cultured overnight with up to 10 μg/mL of AAC
# Procedure: An AAC comprising antibody rF1, which binds to a family of cell wall associated proteins was conjugated to a rifamycin derivative. S. aureus (Newman strain) was treated with various doses of the rF1-AAC or with equivalent doses of either antibody alone, rifampicin alone or a mixture of antibody and free rifampicin to permit antibody binding to the bacteria (opsonization) and after 1 hour incubation the opsonized bacteria were fed to macrophages (FIG. 7A).
# See: page 863 of Dubowchik et al (2002) Bioconj. Chem. 13:855-869, incorporated by reference for the purposes of this assay. Cathepsin B (from bovine spleen, SIGMA C7800) was added at 10 μg/mL and the samples were incubated for 1 hour at 37° C. As a control, AAC were incubated in buffer alone. The reaction was stopped by addition of 10 volumes of bacterial growth media, Tryptic Soy Broth pH 7.4 (TSB). To estimate the total release of active antibiotic, serial dilutions of the reaction mixture were made in quadruplicate in TSB in 96 well plates and the USA300 strain of S. aureus was added to each well at a final density of 2×10^3 CFU/mL. The cultures were incubated over night at […] with shaking and bacterial growth was measured by reading absorbance at 630 nm using a plate reader.
# [4] = tested on: MRSA (NRS384 strain of USA300); assay: MIC determinations for intracellular bacteria (inside mouse peritoneal macrophages); type: cell-based, S. aureus; settings: for killing of intracellular MRSA sequestered inside macrophages: dose range including serum Cmax; for potency at killing intracellular MRSA as free antibiotics: tested as free antibiotics
# [5] = clinically achieveable serum levels; cited from earlier work
# USA300 = assay: intravenous infection model in Balb/c mice, pre-treatment; type: in vivo; settings: antibodies 50 mg/Kg IV 30 minutes prior to infection; vancomycin 110 mg/Kg twice daily IP; day 4
# Procedure: Balb/c mice were given a single dose of vehicle control (PBS) or 50 mg/Kg of antibodies by intravenous injection 30 minutes prior to infection with 2×10^7 CFU of USA300. […] Control mice were given twice daily treatments with 110 mg/Kg of vancomycin by intraperitoneal injection (Vanco). All mice were sacrificed on day 4 post-infection, and the total number of surviving bacteria in kidneys (2 kidneys pooled) was determined by plating.
# (§2) Intravenous Infection Model: 7 week old female mice were used for all in vivo experiments and infections were carried out by intravenous injection into the tail vein. A/J mice (Jackson Lab) were infected with a dose of 2×10^6 CFU. Balb/c mice (Charles River Laboratories, Hollister, Calif.) were infected with a dose of 2×10^7 CFU. For studies examining the role of competing human IgG (SCID IVIG model), CB17.SCID mice (Charles River Laboratories, Hollister, Calif.) were reconstituted with GammaGard S/D IGIV Immune Globulin (ASD Healthcare, Brooks Ky.) using a dosing regimen optimized to achieve constant serum levels of >10 mg/mL of human IgG. […] The total number of bacteria recovered per mouse (2 kidneys) was determined by plating serial dilutions of the tissue homogenate in PBS 0.05% Tween on Tryptic Soy Agar with 5% defibrinated sheep blood.
# MRSA [6] = settings: vancomycin 2 and 20 μg/mL; rifampin 0.02 and 0.2 μg/mL; TSB
# MRSA (USA300) = assay: intravenous infection model in CB17.SCID mice reconstituted with human IgG (SCID:huIgG); type: in vivo; settings: twice-daily 100 mg/Kg, treatment initiated more than 1 day post infection
# Procedure: To confirm that the AAC would be effective in the presence of competing human antibodies in vivo, the in vivo infection model was modified to generate mice that express normal levels of human IgG in the serum. […] Four days after infection the bacterial load in the kidneys (FIG. 10C) was assessed.
# CB17.SCID mice were reconstituted with human IgG using a dosing regimen optimized to yield constant levels of at least 10 mg/mL of human IgG in serum.
# Efficacy of the AAC was compared with that of treatment with vancomycin, the current standard of care treatment for MRSA infections. […]
# CB17.SCID mice were reconstituted with human IgG using a dosing regimen optimized to yield constant levels of at least 10 mg/mL of human IgG in serum and infected with 2×10^7 CFU of USA300 by intravenous injection. […] The mice were sacrificed on day 4 post infection, and the total number of surviving bacteria in kidneys (2 kidneys pooled, FIG. 21) and heart (FIG. 22) was determined by plating.
# as §1, with “vein.” for “vein. A/J mice (Jackson Lab) were infected with a dose of 2×10^6 CFU. Balb/c mice (Charles River Laboratories, Hollister, Calif.) were infected with a dose of 2×10^7 CFU.”
# MRSA [7] = assay: intravenous infection model in CB17.SCID mice, treatment 1 day after infection; type: in vivo; settings: AAC 50 mg/Kg or antibiotic 0.5 mg/Kg, 1 day post infection; kidneys day 4
# Procedure: One day after infection, the mice were treated with 50 mg/Kg of S4497 antibody, 50 mg/Kg of S4497 dimethyl-pipBOR AAC 105 or with 0.5 mg/Kg of dimethyl-pipBOR antibiotic 7, the equivalent dose of antibiotic that is contained in 50 mg/Kg of AAC). Mice were sacrificed 4 days after infection and the total number of surviving bacteria per mouse (2 kidneys pooled) was determined by plating.
# as §2
molecule,measurement,setting,value
thio-S4497-HC-A118C-MC-vc-PABC-(pipBOR) [rifa-102],efficacy at the highest dose,MRSA (USA300 strain) [1]; 50 mg/Kg,effective
same,efficacy in kidney infection,"MRSA (USA300 strain) [1]; 50 mg/Kg IV 30 minutes post infection, kidneys 4 days post infection",cleared the infection in all of the mice tested
same,efficacy at lower doses,MRSA (USA300 strain) [1]; doses below 50 mg/Kg,only partially efficacious
same,intracellular killing of MRSA,MRSA (USA300 strain) [2],effectively killed
same,inhibition of bacterial growth by intact AAC,MRSA [3],did not result in inhibition of bacterial growth unless the AACs were pre-treated with cathepsin B
"CCCCCCCCCC(=O)N[C@@H](Cc1c[nH]c2ccccc12)C(=O)N[C@H](CC(N)=O)C(=O)N[C@@H](CC(=O)O)C(=O)N[C@@H]1C(=O)NCC(=O)N[C@@H](CCCN)C(=O)N[C@@H](CC(=O)O)C(=O)N[C@H](C)C(=O)N[C@@H](CC(=O)O)C(=O)NCC(=O)N[C@H](CO)C(=O)N[C@@H]([C@H](C)CC(=O)O)C(=O)N[C@@H](CC(=O)c2ccccc2N)C(=O)O[C@@H]1C [Daptomycin, daptomycin]",killing of intracellular MRSA sequestered inside macrophages,[4],failed to kill
"CN[C@H](CC(C)C)C(=O)N[C@H]1C(=O)N[C@@H](CC(N)=O)C(=O)N[C@H]2C(=O)N[C@H]3C(=O)N[C@H](C(=O)N[C@H](C(=O)O)c4cc(O)cc(O)c4-c4cc3ccc4O)[C@H](O)c3ccc(c(Cl)c3)Oc3cc2cc(c3O[C@@H]2O[C@H](CO)[C@@H](O)[C@H](O)[C@H]2O[C@H]2C[C@](C)(N)[C@H](O)[C@H](C)O2)Oc2ccc(cc2Cl)[C@H]1O [Vancomycin, vancomycin]",Serum Cmax,[5],10000 to 40000 ng/mL
same,effect of pre-treatment on bacterial loads in kidneys,USA300,cleared the infection in all of the mice tested
same,bacteria remaining viable during the first two hours of antibiotic treatment,MRSA [6],90%
same,loss in viable bacteria by 5 hours,MRSA [6],100 fold
same,reduction of bacterial loads,MRSA (USA300),about 50 fold
same,killing of intracellular MRSA sequestered inside macrophages,[4],failed to kill
"CO[C@H]1/C=C/O[C@@]2(C)Oc3c(C)c(O)c4c(=O)c(c5oc6cc(N7CCC(N(C)C)CC7)cc(O)c6nc-5c4c3C2=O)NC(=O)/C(C)=C\C=C\[C@H](C)[C@H](O)[C@@H](C)[C@@H](O)[C@@H](C)[C@H](OC(C)=O)[C@@H]1C [dimethyl-pipBOR, dimethylpiperidyl benzoxazino rifamycin]",efficacy against established infection,MRSA [7],failed to clear the infection
same,potency at killing intracellular MRSA as free antibiotics,[4],more potent than rifampicin
piperidyl benzoxazino rifamycin [pipBOR],potency at killing intracellular MRSA as free antibiotics,[4],more potent than rifampicin
"CC(=O)NC[C@H]1CN(c2ccc(N3CCOCC3)c(F)c2)C(=O)O1 [Linezolid, linezolid]",MIC,"[4]; Staphylococcus aureus, MRSA inside mouse peritoneal macrophages, antibiotic added 1 day after infection, survival 24 hours later",> 20 µg/mL
same,killing of intracellular MRSA sequestered inside macrophages,[4],failed to kill
